Source: paper PMC12602503, “AaeAP2a, a scorpion-derived antimicrobial peptide, combats carbapenem-resistant Acinetobacter baumannii via membrane disruption and triggered metabolic collapse” (Frontiers in Microbiology, 2025)
Values after ≈ are worked out from the molar mass of the structure shown. “Also recorded” adds a separate entry of the source. Read-outs that look alike come from different tables or passages of the source. No end group written: not given here.

Tests used:
CRAB 236 = test: microbe, parasite or virus in culture; format: cell-based, Acinetobacter baumannii; conditions: for Interpretation: CLSI interpretation of MIC; as to Interpretation: key: R, Resistant; I, Intermediate; S, Sensitive
Experimental: (§1) The inhibitory activity of the antimicrobial peptide was assessed using the broth microdilution method following the CLSI M100-ED34 standard ([Humphries et al., 2021]). A single colony of A. baumannii was isolated and inoculated into Mueller-Hinton Broth (MHB), then incubated overnight at 37 °C with agitation at 180 rpm. The overnight cultures were adjusted to a 0.5 McFarland turbidity standard, after which it was diluted 1:100 in MHB medium. […] A. baumannii ATCC 19606 served as the control strain, and the experiments were conducted in triplicate.

A. baumannii ATCC 19606 = test: microbe, parasite or virus in culture; format: cell-based, Acinetobacter baumannii; conditions: for MIC: CLSI M100-ED34, MHB, triplicate; for Interpretation: CLSI interpretation of MIC; as to Interpretation: key: R, Resistant; I, Intermediate; S, Sensitive
Experimental: as §1

[1] = tested on: Escherichia coli biofilms; conditions: 1 × MIC; ref Luo et al., 2024; cited from earlier work
Description: In addition to […] the permeability of antimicrobial agents, bacterial biofilms, which rely on a complex matrix of extracellular polymeric substances, support the evolution of bacterial drug resistance, creating a protective barrier against drug-induced killing ([Verderosa et al., 2019]). AMPs have shown dual potential in meeting biofilm-related chronic infections: they can inhibit the initial stages of biofilm formation and eradicate mature biofilms. In this study, AaeAP2a, at a 4 × MIC, obtained an inhibition rate approaching 80% against biofilms formed by two strains of Acinetobacter ...

horse erythrocytes = conditions: 64 μg/mL; 2% horse erythrocyte suspension; ref Du et al.; cited from earlier work
Description: Safety and stability are essential prerequisites for the clinical application of pharmaceutical agents.

proteinase K = target: T1, proteinase K (Parengyodontium album, UniProt P06873); test: Protease resistance, read out by MIC; format: in vitro ADME; conditions: proteinase K 0–100 μg/mL, 1 h, 37 °C; MIC vs ATCC 19606; triplicate
T1 construct: purchased Beyotime Biotechnology (China)
Experimental: (§2) We thoroughly examined the effects of storage at room temperature, repeated freeze–thaw cycles, temperature variations, pH levels, salt ions, urea, and protease treatment on the antimicrobial activity of peptide AaeAP2a ([Zhu et al., 2022]). Through 0 to 12 freeze–thaw iterations, AaeAP2a was incubated for 1 h at various temperatures (0, 25, 50, 75, and 100 °C) and pH values (3 to 11). Additionally, the peptide was incubated with four salt ions—NaCl, KCl, CaCl2, and MgCl2—at concentrations of […], as well as with urea at concentrations of […] for 1 h. Furthermore, AaeAP2a was treated with proteinase K or trypsin at concentrations ranging from 0 to 100 μg/mL (i.e., 0, 20, 40, 60, 80, and 100 μg/mL) for 1 h at 37 °C. The changes in its antimicrobial activity were quantitatively assessed using the MIC method. All assays were conducted in triplicate. […] Proteinase K, Trypsin, and Urea were obtained from Beyotime Biotechnology (China), while all other reagents were purchased from Macklin (China).

trypsin = test: Protease resistance, read out by MIC; format: in vitro ADME; conditions: trypsin concentrations exceeding 40 μg/mL, 1 h, 37 °C; MIC vs ATCC 19606; triplicate
Experimental: as §2

[2] = tested on: human embryonic kidney 293 T cells; test: Cytotoxicity, CCK-8; format: cell-based; conditions: 16 × MIC, 24 h
Experimental: (§3) To systematically evaluate the biosafety of the antimicrobial peptide AaeAP2a, we assessed its hemolytic activity and cytotoxicity ([Liu et al., 2020a]; [Zhou F. et al., 2022]). A 4% (v/v) erythrocyte suspension was prepared from freshly collected anticoagulated mouse blood by repeatedly resuspending and washing the cells three times with phosphate-buffered saline (PBS), following the established protocol. […] In this test, 1% (v/v) Triton X-100 was used as the positive control. Three replicates per treatment group were used to study OD at 540 nm using a microplate reader. The cytotoxicity of AaeAP2a on human embryonic kidney 293 T cells was tested using the Cell Counting Kit - 8 (CCK-8). […] The CCK-8 assay was thus performed, with three replicates recorded for each concentration.

mouse erythrocytes = test: Hemolytic activity; format: cell-based; conditions: 4% mouse erythrocyte suspension, 37 °C, 1 h, OD 540 nm
Experimental: as §3

[3] = Acinetobacter baumannii, ATCC19606, broth microdilution, read-out: MIC
[4] = CRAB 236, broth microdilution, CLSI M100-ED34, MHB, triplicate

T1 sequence (P06873 106-384): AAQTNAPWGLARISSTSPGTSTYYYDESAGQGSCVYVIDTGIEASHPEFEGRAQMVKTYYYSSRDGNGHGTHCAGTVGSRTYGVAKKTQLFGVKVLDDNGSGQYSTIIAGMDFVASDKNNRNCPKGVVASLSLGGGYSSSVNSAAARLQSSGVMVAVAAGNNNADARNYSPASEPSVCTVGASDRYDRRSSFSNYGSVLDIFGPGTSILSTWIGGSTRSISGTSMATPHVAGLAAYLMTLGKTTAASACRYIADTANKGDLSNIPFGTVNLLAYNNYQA

Row | Compound | MIC (CRAB 236; Acinetobacter baumannii) [µg/mL] | Interpretation (CRAB 236; CRAB 236) | MIC (A. baumannii ATCC 19606; [3]) [µg/mL] | Interpretation (A. baumannii ATCC 19606) | Eradication efficiency against Escherichia coli biofilms [1] [%] | MIC (CRAB 236; [4]) [µg/mL] | MIC (A. baumannii ATCC 19606; broth microdilution) [µg/mL] | Hemolysis (horse erythrocytes) | Resistance to proteinase K (proteinase K) | Activity after trypsin treatment (trypsin) | Cell viability [2] [%] | Hemolysis (mouse erythrocytes; 16 × MIC) [%] | Hemolysis (mouse erythrocytes; 64 × MIC (200 μg/mL)) [%]
1 | CN(C)[C@@H]1C(O)=C(C(N)=O)C(=O)[C@@]2(O)C(O)=C3C(=O)c4c(O)cccc4[C@@](C)(O)[C@H]3C[C@@H]12 [Tetracycline] | 64 (≈ 144 µM) | R | 2 (≈ 4.5 µM) | S | – | – | – | – | – | – | – | – | –
2 | CNC(C)C1CCC(N)C(OC2C(N)CC(N)C(OC3OCC(C)(O)C(NC)C3O)C2O)O1 (centres unmarked) [Gentamicin] | > 32 | R | 1 (≈ 2.09 µM) | S | – | – | – | – | – | – | – | – | –
3 | Colistin | – | S | – | S | 35 | 0.5 | 2 | – | – | – | – | – | –
4 | FLFKLIPKAIKGLVKAIRK [AaeAP2a] | – | – | – | – | – | 6.25 | 3.125 | complete lysis | substantial resistance | markedly reduced; also recorded: diminished | > 90 | < 5 | < 5
5 | CO/N=C(\C(=O)N[C@@H]1C(=O)N2C(C(=O)O)=C(CSc3nc(=O)c(=O)[nH]n3C)CS[C@H]12)c1csc(N)n1 [Ceftriaxone] | 32 (≈ 57.7 µM) | I | 16 (≈ 28.9 µM) | I | – | – | – | – | – | – | – | – | –
6 | C[C@@H](O)[C@H]1C(=O)N2C(C(=O)O)=C(S[C@@H]3CN[C@H](C(=O)N(C)C)C3)[C@H](C)[C@H]12 [Meropenem] | 16 (≈ 41.7 µM) | R | 2 (≈ 5.22 µM) | S | – | – | – | – | – | – | – | – | –
